SMILES strings stand for the structures. “Also recorded” adds a separate entry of the source. Where two headings read alike, the source gives them in different places.

The target of one assay is T1, Lsp from E. coli (Escherichia coli, UniProt P00804).
T1 construct: The full-length Lsp clone from E. coli (residues 1-164); His6 with enterokinase cleavage site (pET19b) (N); made in house; host or cells: E. coli Lemo21 (DE3), pET19b vector
Briefly: Lsp FRET activity assay, IC50 determination. The assay is classed as biochemical. As to conditions: for IC50: read-out: IC50. How it is done:
[…] […] 50 μM Lsp FRET substrate was subsequently added and the rate of substrate hydrolysis was measured by increase in fluorescence (excitation 355 nm, emission 495 nm) in 96-well plates on a PerkinElmer EnVision plate reader or Tecan Safire 2 microplate reader. Michaelis-Menten constants and […] were determined using GraphPad Prism software (GraphPad, Inc.).

The next assay concerns E. coli (ATCC25922). As to the kind of experiment: Bacteria growth assay, E. coli ATCC25922. It is filed as cell-based. How it is done: (§1) Effect of compounds on bacterial growth was measured using the method described previously with slight modifications^[1]. Colony suspension method was used to prepare bacteria suspension using McFarland Standard 0.5 to adjust the turbidity. Cells were introduced to two-fold serial dilutions of compound in a final volume of 105 μL with 5% DMSO. Mueller-Hinton broth (MH) or LB broth was used for E. coli ATCC25922 or E. coli DW37 and YX23, respectively. Plates were incubated at 37° C., and the OD600 was measured using a PerkinElmer EnVision plate reader after gentle shaking. Mutant E. coli (DW37 and YX23) were previously described.^[2] Globomycin was used as a positive control and the concentration-response curves of globomycin on bacteria growth (E. coli ATCC25922) is shown below (error bar: SD).

A further assay concerns E. coli DW37. As to the kind of experiment: Bacteria growth assay, isogenic parent strain DW37. It is filed as cell-based. As to conditions: OD600 at 10 h. Also noted: dose or concentration left out as unconfirmed. How it is done:
as §1

The test system of assay [1] is E. coli YX23. As to the kind of experiment: Bacteria growth assay, Lsp-inhibition resistant mutant YX23. It is filed as cell-based. Also noted: dose or concentration left out as unconfirmed. As to conditions: OD600 at 24 h. How it is done:
as §1

Assay [2] has as its system E. coli YX23. As to conditions: literature [14]; cited from earlier work.

T1 sequence (P00804 whole entry, the tested form may be a part): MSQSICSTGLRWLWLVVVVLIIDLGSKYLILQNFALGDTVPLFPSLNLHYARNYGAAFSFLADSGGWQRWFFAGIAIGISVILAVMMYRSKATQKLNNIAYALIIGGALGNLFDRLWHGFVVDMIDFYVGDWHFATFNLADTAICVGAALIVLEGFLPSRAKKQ

Turning to `COc1cc(C(=O)Nc2nnc(C3CCCCC3)s2)c([N+](=O)[O-])cc1OC` [1c, N-(5-cyclohexyl-1,3,4-thiadiazol-2-yl)-4,5-dimethoxy-2-nitrobenzamide], the “potency against Lsp, in words (SAR)” value at Lsp from E. coli is given as “ablated the potency”. The IC50 (in general, the midpoint of a concentration-inhibition curve) on Lsp from E. coli (FRET-based assay, [Lsp] = 400 nM, mean (± SD)) was greater than 400 µM. Further, the “bacterial growth, in words” value in the assay on E. coli (ATCC25922) (in combination with PMBN 8 mg/L) is reported as “did not inhibit the bacterial growth”.

Regarding `CCC(CC)c1nnc(NC(=O)c2cc(OC)c(OC3CCCC3)cc2[N+](=O)[O-])s1` [1j, 4-(cyclopentyloxy)-5-methoxy-2-nitro-N-(5-(pentan-3-yl)-1,3,4-thiadiazol-2-yl)benzamide], at Lsp from E. coli, the “effect on cleaved substrate fluorescence” value is recorded as “no effect” and the IC50 stood at 0.099 µM. Also, the Hill constant entry on Lsp from E. coli ([S]=50 μM, [Lsp]=100 nM) was “approximately 1”. Moreover, in the assay with E. coli (ATCC25922) (cultures of E. coli), the “bacterial growth, in words” value is recorded as “inhibits bacterial growth”. For the same molecule, the “growth of DW37” value in the assay on E. coli DW37 is “inhibited the growth”. Besides, in the assay with E. coli YX23 [1], the “growth of YX23” value is “resistant; also recorded: did not inhibit the growth”.

Turning to `CCCC1OC(=O)C(C)CC(C)CCCCC(=O)CCCC(CC)/C=C/C=C(\COC)CCC(O)C(O)CC(O)CNC1=O` (centres unmarked) [myxovirescin], the “resistance of YX23” value in the assay with E. coli YX23 [2] is given as “resistant”.

`CCCCCCC1OC(=O)CNC(=O)C(C(C)O)NC(=O)C(CO)NC(=O)C(C(C)CC)NC(=O)C(CC(C)C)N(C)C(=O)C1C` (centres unmarked) [Globomycin, globomycin]: the “resistance of YX23” value in the assay on E. coli YX23 [2] is recorded as “resistant”.

The record behind these values is US20200181101A1, “BENZAMIDE INHIBITORS OF BACTERIAL LIPOPROTEIN SIGNAL PEPTIDASE” (The Scripps Research Institute, priority 2017, published 2020).
